Reference: US20160158200A1, “Combinations of Hepatitis C Virus Inhibitors” (priority 2013, published 2016)

Tested on: HCV genotype-1a variant with glutamine 30 changed to glutamate in the NS5A protein
Format: cell-based
Conditions: test compound titrated with BMS-790052 fixed at 200 nM; genotype 1a Q30E replicon
Method in brief: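 Synergy was assessed by combining several fixed amounts of an NS5A-targeting compound with a titration of the second compound of interest.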

SMILES | Fold-Synergistic 1a (Q30E) [fold]
O=C(OC1CCCC1)N1CCC[C@H]1c1ncc(-c2ccc(-c3ccc(-c4cnc([C@@H]5CCCN5C(=O)OC5CCCC5)[nH]4)cc3)cc2)[nH]1 [Compound S-225] | >10
O=C(Oc1ccc2ccccc2c1)N1CCC[C@H]1c1ncc(-c2ccc(-c3ccc(-c4cnc([C@@H]5CCCN5C(=O)Oc5ccc6ccccc6c5)[nH]4)cc3)cc2)[nH]1 [Compound S-226] | >100
CC(C)[C@H](NC(=O)N(c1ccccc1)c1ccccc1)c1nc(-c2ccc(-c3ccc(-c4c[nH]c([C@@H](NC(=O)N(c5ccccc5)c5ccccc5)C(C)C)n4)cc3)cc2)c[nH]1 [Compound S-227] | >100
CC(C)[C@H](NC(=O)N(C)C)c1nc(-c2ccc(-c3ccc(-c4c[nH]c([C@@H](NC(=O)N(C)C)C(C)C)n4)cc3)cc2)c[nH]1 [Compound S-228] | >100
CCN(CC)C(=O)NC(c1nc(-c2ccc(-c3ccc(-c4c[nH]c(C(NC(=O)N(CC)CC)C(C)C)n4)cc3)cc2)c[nH]1)C(C)C (centres unmarked) [Compound S-229] | >100
CC(C)[C@H](NC(=O)N(C(C)C)C(C)C)c1nc(-c2ccc(-c3ccc(-c4c[nH]c([C@@H](NC(=O)N(C(C)C)C(C)C)C(C)C)n4)cc3)cc2)c[nH]1 [Compound S-230] | >100
CC(C)[C@H](NC(=O)N1CCOCC1)c1ncc(-c2ccc(-c3ccc(-c4cnc([C@@H](NC(=O)N5CCOCC5)C(C)C)[nH]4)cc3)cc2)[nH]1 [Compound S-231] | >10
CC(C)[C@H](NC(=O)N1CCCC1)c1ncc(-c2ccc(-c3ccc(-c4cnc([C@@H](NC(=O)N5CCCC5)C(C)C)[nH]4)cc3)cc2)[nH]1 [Compound S-232] | >100
CC(C)[C@H](NC(=O)n1c2ccccc2c2ccccc21)c1ncc(-c2ccc(-c3ccc(-c4cnc([C@@H](NC(=O)n5c6ccccc6c6ccccc65)C(C)C)[nH]4)cc3)cc2)[nH]1 [Compound S-233] | >100
CC(C)[C@H](NC(=O)N1CCCCC1)c1ncc(-c2ccc(-c3ccc(-c4cnc([C@@H](NC(=O)N5CCCCC5)C(C)C)[nH]4)cc3)cc2)[nH]1 [Compound S-234] | >100
CC(C)[C@H](NC(=O)N1CCN(C)CC1)c1ncc(-c2ccc(-c3ccc(-c4cnc([C@@H](NC(=O)N5CCN(C)CC5)C(C)C)[nH]4)cc3)cc2)[nH]1 [Compound S-235] | >10
CC(C)[C@H](NC(=O)[C@H](NC(=O)OCc1ccccc1)C(C)C)c1ncc(-c2ccc(-c3ccc(-c4cnc([C@@H](NC(=O)[C@H](NC(=O)OCc5ccccc5)C(C)C)C(C)C)[nH]4)cc3)cc2)[nH]1 [Compound S-245] | >100
CC(C)COC(=O)N[C@@H](C(=O)N[C@H](c1ncc(-c2ccc(-c3ccc(-c4cnc([C@@H](NC(=O)[C@H](NC(=O)OCC(C)C)C(C)C)C(C)C)[nH]4)cc3)cc2)[nH]1)C(C)C)C(C)C [Compound S-246] | >100
CCOC(=O)N[C@@H](C(=O)N[C@H](c1ncc(-c2ccc(-c3ccc(-c4cnc([C@@H](NC(=O)[C@H](NC(=O)OCC)C(C)C)C(C)C)[nH]4)cc3)cc2)[nH]1)C(C)C)C(C)C [Compound S-247] | >100
CCCOC(=O)N[C@@H](C(=O)N[C@H](c1ncc(-c2ccc(-c3ccc(-c4cnc([C@@H](NC(=O)[C@H](NC(=O)OCCC)C(C)C)C(C)C)[nH]4)cc3)cc2)[nH]1)C(C)C)C(C)C [Compound S-248] | >100
CCCCOC(=O)N[C@@H](C(=O)N[C@H](c1ncc(-c2ccc(-c3ccc(-c4cnc([C@@H](NC(=O)[C@H](NC(=O)OCCCC)C(C)C)C(C)C)[nH]4)cc3)cc2)[nH]1)C(C)C)C(C)C [Compound S-249] | >100
CC(C)OC(=O)N[C@@H](C(=O)N[C@H](c1ncc(-c2ccc(-c3ccc(-c4cnc([C@@H](NC(=O)[C@H](NC(=O)OC(C)C)C(C)C)C(C)C)[nH]4)cc3)cc2)[nH]1)C(C)C)C(C)C [Compound S-250] | >100
CC(C)[C@H](NC(=O)[C@H](NC(=O)OC1CCCC1)C(C)C)c1ncc(-c2ccc(-c3ccc(-c4cnc([C@@H](NC(=O)[C@H](NC(=O)OC5CCCC5)C(C)C)C(C)C)[nH]4)cc3)cc2)[nH]1 [Compound S-251] | >100
C#CCOC(=O)N[C@@H](C(=O)N[C@H](c1ncc(-c2ccc(-c3ccc(-c4cnc([C@@H](NC(=O)[C@H](NC(=O)OCC#C)C(C)C)C(C)C)[nH]4)cc3)cc2)[nH]1)C(C)C)C(C)C [Compound S-252] | >100
CC(C)[C@H](NC(=O)[C@H](NC(=O)OCC(C)(C)C)C(C)C)c1ncc(-c2ccc(-c3ccc(-c4cnc([C@@H](NC(=O)[C@H](NC(=O)OCC(C)(C)C)C(C)C)C(C)C)[nH]4)cc3)cc2)[nH]1 [Compound S-253] | >100
COc1ccc2cc([C@@H](C)C(=O)N[C@H](c3nc(-c4ccc(-c5ccc(-c6c[nH]c([C@@H](NC(=O)[C@H](C)c7ccc8cc(OC)ccc8c7)C(C)(C)C)n6)cc5)cc4)c[nH]3)C(C)(C)C)ccc2c1 [Compound S-254] | >100

SMILES | Fold-Synergistic 1a (Q30E) [fold]
CC(C)(C)[C@H](NC(=O)C1CCN(S(C)(=O)=O)CC1)c1nc(-c2ccc(-c3ccc(-c4c[nH]c([C@@H](NC(=O)C5CCN(S(C)(=O)=O)CC5)C(C)(C)C)n4)cc3)cc2)c[nH]1 [Compound S-255] | >100
CCCC[C@@H](CC(=O)OC(C)(C)C)C(=O)N[C@H](c1nc(-c2ccc(-c3ccc(-c4c[nH]c([C@@H](NC(=O)[C@@H](CCCC)CC(=O)OC(C)(C)C)C(C)(C)C)n4)cc3)cc2)c[nH]1)C(C)(C)C [Compound S-260] | >100
CC(C)(C)[C@H](NC(=O)C12CCC(CC1)C2)c1nc(-c2ccc(-c3ccc(-c4c[nH]c([C@@H](NC(=O)C56CCC(CC5)C6)C(C)(C)C)n4)cc3)cc2)c[nH]1 [Compound S-261] | >100
CC(C)(C)OC(=O)N1CCC(C(=O)N[C@H](c2nc(-c3ccc(-c4ccc(-c5c[nH]c([C@@H](NC(=O)C6CCN(C(=O)OC(C)(C)C)CC6)C(C)(C)C)n5)cc4)cc3)c[nH]2)C(C)(C)C)CC1 [Compound S-264] | >100
COc1ccc(CNC(C)(C)C(=O)N[C@H](c2nc(-c3ccc(-c4ccc(-c5c[nH]c([C@@H](NC(=O)C(C)(C)NCc6ccc(OC)cc6)C(C)(C)C)n5)cc4)cc3)c[nH]2)C(C)(C)C)cc1 [Compound S-267] | >100
CN1CCC(C(=O)N[C@H](c2nc(-c3ccc(-c4ccc(-c5c[nH]c([C@@H](NC(=O)C6CCN(C)CC6)C(C)(C)C)n5)cc4)cc3)c[nH]2)C(C)(C)C)CC1 [Compound S-268] | >10
CC(C)(C)OC(=O)NC1CCC(C(=O)N[C@H](c2nc(-c3ccc(-c4ccc(-c5c[nH]c([C@@H](NC(=O)C6CCC(NC(=O)OC(C)(C)C)CC6)C(C)(C)C)n5)cc4)cc3)c[nH]2)C(C)(C)C)CC1 (some centres unmarked) [Compound S-270] | >100
CC(C)(C)OC(=O)CC(C(=O)NC(c1nc(-c2ccc(-c3ccc(-c4c[nH]c(C(NC(=O)C(CC(=O)OC(C)(C)C)C5CCCC5)C(C)(C)C)n4)cc3)cc2)c[nH]1)C(C)(C)C)C1CCCC1 (centres unmarked) [Compound S-272] | >100
COC(=O)C1(C(=O)N[C@H](c2nc(-c3ccc(-c4ccc(-c5c[nH]c([C@@H](NC(=O)C6(C(=O)OC)CCCCC6)C(C)(C)C)n5)cc4)cc3)c[nH]2)C(C)(C)C)CCCCC1 [Compound S-273] | >100
CC(C)(C)[C@H](NC(=O)C(C)(C)n1cnnn1)c1nc(-c2ccc(-c3ccc(-c4c[nH]c([C@@H](NC(=O)C(C)(C)n5cnnn5)C(C)(C)C)n4)cc3)cc2)c[nH]1 [Compound S-277] | >100
COC(=O)NN(C(=O)[C@@H]1CCC[C@H]1c1nc(-c2ccc(-c3ccc(-c4cnc([C@@H]5CCC[C@H]5C(=O)N(NC(=O)OC)C(C)C)[nH]4)cc3)cc2)c[nH]1)C(C)C [Compound V-1] | >100
CN(C)C(=O)C(=O)N[C@H](c1nc(-c2ccc(-c3ccc(-c4c[nH]c([C@@H](NC(=O)C(=O)N(C)C)C(C)(C)C)n4)cc3)cc2)c[nH]1)C(C)(C)C [Compound W-10] | >100
CC(C)(C)[C@H](NC(=O)C(=O)N1CCCCC1)c1nc(-c2ccc(-c3ccc(-c4c[nH]c([C@@H](NC(=O)C(=O)N5CCCCC5)C(C)(C)C)n4)cc3)cc2)c[nH]1 [Compound W-11] | >100
CC(C)(C)[C@H](Nc1ncc(Br)cn1)c1nc(-c2ccc(-c3ccc(-c4c[nH]c([C@@H](Nc5ncc(Br)cn5)C(C)(C)C)n4)cc3)cc2)c[nH]1 [Compound W-16A] | >10
CC(C)(C)[C@H](N)c1nc(-c2ccc(-c3ccc(-c4c[nH]c([C@@H](Nc5ncc(Br)cn5)C(C)(C)C)n4)cc3)cc2)c[nH]1 [Compound W-16B] | <10
CC(C)(C)[C@H](NC(=O)C(=O)c1cccs1)c1nc(-c2ccc(-c3ccc(-c4c[nH]c([C@@H](NC(=O)C(=O)c5cccs5)C(C)(C)C)n4)cc3)cc2)c[nH]1 [Compound W-19] | >100
CC(C)(C)[C@H](NC(=O)C(=O)c1ccco1)c1nc(-c2ccc(-c3ccc(-c4c[nH]c([C@@H](NC(=O)C(=O)c5ccco5)C(C)(C)C)n4)cc3)cc2)c[nH]1 [Compound W-20] | >100
CC(C)(C)[C@H](NC(=O)C(=O)N1CCCC1)c1nc(-c2ccc(-c3ccc(-c4c[nH]c([C@@H](NC(=O)C(=O)N5CCCC5)C(C)(C)C)n4)cc3)cc2)c[nH]1 [Compound W-21] | >100
CC(C)(C)[C@H](NC(=O)C(=O)N1CCC(F)(F)C1)c1nc(-c2ccc(-c3ccc(-c4c[nH]c([C@@H](NC(=O)C(=O)N5CCC(F)(F)C5)C(C)(C)C)n4)cc3)cc2)c[nH]1 [Compound W-22] | >100
CC(C)(C)[C@H](NC(=O)C(=O)N1CCC(F)(F)CC1)c1nc(-c2ccc(-c3ccc(-c4c[nH]c([C@@H](NC(=O)C(=O)N5CCC(F)(F)CC5)C(C)(C)C)n4)cc3)cc2)c[nH]1 [Compound W-24] | >100
